# Literature values, collected in PMC6318274, “Lattice engineering enables definition of molecular features allowing for potent small-molecule inhibition of HIV-1 entry” (Nature Communications, 2019).
# Where two headings read alike, the source gives them in different places.
# System: HIV-1 Env-pseudoviruses (208-strain panel)
# Details: cited from earlier work; for IC50: read-out: IC50; for % Neutralized / Total Neutralized: 208 viruses
smiles,measurement,setting,value
COc1cnc(-n2cnc(C)n2)c2[nH]cc(C(=O)C(=O)N3CCN(C(=O)c4ccccc4)CC3)c12 [BMS-626529],IC50,"CNE20, clade BC",0.339 µM
same,IC50,"CNE21, clade BC",0.002 µM
same,IC50,"CNE30, clade C",0.001 µM
same,IC50,"CNE31, clade C",0.023 µM
same,IC50,"CNE40, clade BC",0.038 µM
same,IC50,"CNE53, clade C",0.0005 µM
same,IC50,"CNE55, clade AE",4.77 µM
same,IC50,"CNE56, clade AE",> 20 µM
same,IC50,"CNE57, clade B",0.002 µM
same,IC50,"CNE58, clade C",0.004 µM
same,IC50,"CNE59, clade AE",> 20 µM
same,IC50,"Ce1176.A3, clade C",0.01 µM
same,IC50,"DJ263.8, clade AG",0.011 µM
same,IC50,"DU123.06, clade C",0.005 µM
same,IC50,"DU151.02, clade C",0.006 µM
same,IC50,"DU156.12, clade C",0.003 µM
same,IC50,"DU172.17, clade C",0.008 µM
same,IC50,"DU422.01, clade C",0.008 µM
same,IC50,"HO86.8, clade B",0.02 µM
same,IC50,"HT593.1, clade B",0.0009 µM
same,IC50,"HXB2.DG, clade B",0.001 µM
same,% Neutralized,IC50 <0.01ug/ml,46%
same,Total Neutralized,IC50 <0.01ug/ml,95
same,% Neutralized,IC50 <0.1ug/ml,71%
same,Total Neutralized,IC50 <0.1ug/ml,147
same,% Neutralized,IC50 <1.0ug/ml,80%
same,Total Neutralized,IC50 <1.0ug/ml,167
same,% Neutralized,IC50 <10ug/ml,89%
same,Total Neutralized,IC50 <10ug/ml,185
same,% Neutralized,IC50 <50ug/ml,91%
same,Total Neutralized,IC50 <50ug/ml,189
same,IC50,"JRCSF.JB, clade B",0.0003 µM
same,IC50,"JRFL.JB, clade B",0.0004 µM
same,IC50,"KER2008.12, clade A",1.87 µM
same,IC50,"KER2018.11, clade A",0.008 µM
same,IC50,"KNH1209.18, clade A",0.029 µM
same,IC50,"M02138, clade AE",2.81 µM
same,IC50,"MB201.A1, clade A",0.628 µM
same,IC50,"MB539.2B7, clade A",0.191 µM
same,IC50,"MI369.A5, clade A",0.013 µM
same,IC50,"MN.3, clade B",0.01 µM
same,IC50,"MS208.A1, clade A",0.011 µM
same,IC50,"MW965.26, clade C",0.433 µM
same,IC50,"NKU3006.ec1, clade D",0.005 µM
same,IC50,"P0402.c2.11, clade G",0.032 µM
same,IC50,"P1981.C5.3, clade G",0.209 µM
same,IC50,"PVO.04, clade B",0.003 µM
same,IC50,"Q23.17, clade A",0.012 µM
same,IC50,"Q168.a2, clade AD",0.115 µM
same,IC50,"Q259.17, clade A",1.23 µM
same,IC50,"Q461.e2, clade AD",0.012 µM
same,IC50,"Q769.d22, clade A",0.123 µM
same,IC50,"Q769.h5, clade A",0.427 µM
same,IC50,"Q842.d12, clade A",0.017 µM
same,IC50,"QH209.14M.A2, clade A",0.61 µM
same,IC50,"QH0515.01, clade B",0.012 µM
same,IC50,"QH0692.42, clade B",0.009 µM
same,IC50,"R1166.c1, clade AE",> 20 µM
same,IC50,"R2184.c4, clade AE",> 20 µM
same,IC50,"R3265.c6, clade AE",13 µM
same,IC50,"REJO.67, clade B",1.04 µM
same,IC50,"RHPA.7, clade B",0.004 µM
same,IC50,"RW020.2, clade A",0.071 µM
same,IC50,"SC422.8, clade B",0.002 µM
same,IC50,"SF162.LS, clade B",0.001 µM
same,IC50,"SO18.18, clade C",0.003 µM
same,IC50,"SS1196.01, clade B",7.05 µM
same,IC50,"T33-7, clade AG",2.81 µM
same,IC50,"T250-4, clade AG",0.015 µM
same,IC50,"T251-18, clade AG",0.019 µM
same,IC50,"T253-11, clade AG",0.001 µM
same,IC50,"T255-34, clade AG",0.082 µM
same,IC50,"T257-31, clade AG",0.057 µM
same,IC50,"T266-60, clade AG",1.37 µM
same,IC50,"T278-50, clade AG",0.0002 µM
same,IC50,"T280-5, clade AG",0.01 µM
same,IC50,"TH023.6, clade AE",> 20 µM
same,IC50,"TH966.8, clade AE",> 20 µM
same,IC50,"TH976.17, clade AE",> 20 µM
same,IC50,"THRO.18, clade B",0.003 µM
same,IC50,"TRJO.58, clade B",0.001 µM
same,IC50,"TRO.11, clade B",1.08 µM
same,IC50,"TV1.29, clade C",0.067 µM
same,IC50,"TZA125.17, clade C",0.014 µM
same,IC50,"TZBD.02, clade C",0.005 µM
same,IC50,"UG021.16, clade D",0.013 µM
same,IC50,"UG024.2, clade D",0.566 µM
same,IC50,"UG037.8, clade A",1.01 µM
same,IC50,"WITO.33, clade B",0.005 µM
same,IC50,"X1254.c3, clade G",0.043 µM
same,IC50,"X1632.S2.B10, clade G",0.054 µM
same,IC50,"X2088.c9, clade G",0.003 µM
same,IC50,"X2131.C1.B5, clade G",0.267 µM
same,IC50,"X2278.C2.B6, clade B",1.26 µM
same,IC50,"YU2.DG, clade B",0.0009 µM
same,IC50,"ZA012.29, clade C",0.007 µM
same,IC50,"ZM53.12, clade C",0.01 µM
same,IC50,"ZM55.28a, clade C",0.006 µM
same,IC50,"ZM106.9, clade C",0.017 µM
same,IC50,"ZM109.4, clade C",0.001 µM
same,IC50,"ZM135.10a, clade C",0.889 µM
same,IC50,"ZM176.66, clade C",0.018 µM
same,IC50,"ZM197.7, clade C",0.006 µM
same,IC50,"ZM214.15, clade C",0.002 µM
same,IC50,"ZM215.8, clade C",0.002 µM
same,IC50,"ZM233.6, clade C",0.0008 µM
same,IC50,"ZM249.1, clade C",0.018 µM
same,IC50,"[…], clade C",0.002 µM
same,IC50,"[…], clade G",0.12 µM
